Measured values from patent US11596631B2, “CDK12 inhibitors and their uses” (The University of Nottingham, priority 2016, dated 2023).

What was measured:
[1] = tested on: nuclear foci in DM1 fibroblasts; assay: nuclear foci assay (in situ hybridisation with Cy3 CAG10 probe, high content imaging); assay type: cell-based; conditions: for activity in the nuclear foci assay (nuclear foci relative to DMSO treated cells): DM1 fibroblasts, 24 hours, dilution series; for reduction in foci on exposure for different lengths of time: 2 hours to 48 hours
Description: Using a previously reported assay the PKIS collection was screened for compounds that reduce nuclear foci and the compounds were then analysed for their known selectivity profiles to identify the common kinase targets (Ketley, A. et al. (2014). Hum Mol Genet, 23: 1551-1562). […] Following treatment, fluorescent in situ hybridisation was performed with a cy3 labelled CAG10 probe, to visualize nuclear foci and cells were analysed on a Molecular Devices plate reader with customised MetaExpress software (Ketley, A. et al. (2014). Hum Mol Genet, 23: 1551-1562). Compounds that reduced nuclear foci in a concentration dependent manner, compared to DMSO treated cells were identified and prioritized for further study.
[…] Plates were analysed on a Molecular Devices Micro High Content Imaging system, with nine fields imaged per well to give approximately 100 cells per well, per compound treatment. The nuclear area was identified by Hoechst stain and the number, size and intensity of foci was determined by scoring adjacent pixels that were 80 grayscales or more above background.

[2] = biological target: CDK9 (Homo sapiens, UniProt P50750); conditions: previously reported IC50 values (FIG. 13); cited from earlier work
Sequence of CDK9 (P50750 whole entry): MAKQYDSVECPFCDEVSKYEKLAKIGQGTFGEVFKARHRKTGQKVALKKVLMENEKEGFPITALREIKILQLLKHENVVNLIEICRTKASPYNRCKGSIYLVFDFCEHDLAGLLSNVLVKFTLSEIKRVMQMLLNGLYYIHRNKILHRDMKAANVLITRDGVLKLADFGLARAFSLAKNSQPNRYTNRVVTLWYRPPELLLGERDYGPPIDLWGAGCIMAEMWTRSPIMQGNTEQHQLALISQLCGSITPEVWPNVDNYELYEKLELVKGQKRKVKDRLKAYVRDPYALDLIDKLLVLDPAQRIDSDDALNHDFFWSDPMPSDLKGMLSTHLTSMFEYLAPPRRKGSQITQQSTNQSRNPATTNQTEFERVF
Sequence of CDK9 (O60563 whole entry partner): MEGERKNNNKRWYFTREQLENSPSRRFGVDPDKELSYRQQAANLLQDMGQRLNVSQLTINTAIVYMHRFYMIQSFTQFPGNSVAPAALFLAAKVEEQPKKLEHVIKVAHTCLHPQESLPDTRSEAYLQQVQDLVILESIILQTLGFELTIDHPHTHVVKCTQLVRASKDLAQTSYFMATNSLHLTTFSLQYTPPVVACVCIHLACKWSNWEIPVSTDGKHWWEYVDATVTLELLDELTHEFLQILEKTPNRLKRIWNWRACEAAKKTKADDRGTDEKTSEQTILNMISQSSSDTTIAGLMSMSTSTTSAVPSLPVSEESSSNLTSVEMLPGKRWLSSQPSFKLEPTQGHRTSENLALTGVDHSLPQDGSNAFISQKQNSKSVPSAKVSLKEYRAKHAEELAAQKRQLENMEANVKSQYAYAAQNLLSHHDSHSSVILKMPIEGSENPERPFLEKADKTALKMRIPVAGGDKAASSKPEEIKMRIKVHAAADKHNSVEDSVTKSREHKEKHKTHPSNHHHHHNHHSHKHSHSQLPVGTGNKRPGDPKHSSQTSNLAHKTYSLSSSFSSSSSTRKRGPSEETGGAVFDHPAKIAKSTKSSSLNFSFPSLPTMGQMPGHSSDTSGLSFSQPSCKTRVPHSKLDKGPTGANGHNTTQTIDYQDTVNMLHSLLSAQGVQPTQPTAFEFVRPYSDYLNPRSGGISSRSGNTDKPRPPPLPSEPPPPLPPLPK

[3] = tested on: mutant DMPK transcripts in DM1 fibroblast cells; assay: RT-PCR / BpmI assay for repeat expansion transcripts; assay type: cell-based
Description: (A) Ethidium bromide stained gel showing RT-PCR products from nuclear (N) and cytoplasmic (C) RNA fractions following amplification and BpmI digest of a fragment of DMPK. GAPDH is used as a loading control. […] (D) DM1 cells treated with SNS-032 for 2 hours.
Reverse transcription was performed using 1 μg total RNA from compound-treated and untreated cells. […] For Genescan analysis primer N11 was labelled with FAM. Amplification was performed with a Tm of 58° C. The PCR product was subsequently heated to 95° C. for 2 minutes followed by cooling to 4° C. For Bpml restriction digestion analysis of DMPK PCR products, 8 μl of PCR mixture was digested overnight with restriction enzyme Bpml (NEB) in a total reaction volume of 20 μl at 37° C. The final products were analysed by electrophoresis at 90V with 3% agarose gels and the density of bands quantified using ImageJ software or by fragment analysis on an AB1377 sequencer followed by Genescan quantification.

[4] = tested on: HSALR mice; assay: inhibitor treatment in DM1 mouse model; assay type: in vivo; conditions: compared to vehicle control animals
Description: FIG. 7: Inhibitor treatment in a DM1 mouse model (A) Combined myotonia grade scores in quadriceps, gastrocnemius and paraspinal muscles from HSALR mice following vehicle and dinaciclib compound treatment (n=6 per treatment group) (B) Myotonia grades by muscle type in dinaciclib and vehicle treated HSALR mice.
To establish the in vivo effect of this inhibitor HSA^LR mice were treated by intraperitoneal injection for a 28 day treatment period comprising 12 injections in total.

[5] = biological target: T1, CDK12 (Homo sapiens, UniProt Q9NYV4); assay: chemoproteomics dose-response competition binding with SNS-032 affinity matrix; conditions: K562 or A204 cell extract, SNS-032 beads
T1 construct: endogenous in cells; host or cells: K562 or A204 cell extract
T1 sequence (Q9NYV4 whole entry): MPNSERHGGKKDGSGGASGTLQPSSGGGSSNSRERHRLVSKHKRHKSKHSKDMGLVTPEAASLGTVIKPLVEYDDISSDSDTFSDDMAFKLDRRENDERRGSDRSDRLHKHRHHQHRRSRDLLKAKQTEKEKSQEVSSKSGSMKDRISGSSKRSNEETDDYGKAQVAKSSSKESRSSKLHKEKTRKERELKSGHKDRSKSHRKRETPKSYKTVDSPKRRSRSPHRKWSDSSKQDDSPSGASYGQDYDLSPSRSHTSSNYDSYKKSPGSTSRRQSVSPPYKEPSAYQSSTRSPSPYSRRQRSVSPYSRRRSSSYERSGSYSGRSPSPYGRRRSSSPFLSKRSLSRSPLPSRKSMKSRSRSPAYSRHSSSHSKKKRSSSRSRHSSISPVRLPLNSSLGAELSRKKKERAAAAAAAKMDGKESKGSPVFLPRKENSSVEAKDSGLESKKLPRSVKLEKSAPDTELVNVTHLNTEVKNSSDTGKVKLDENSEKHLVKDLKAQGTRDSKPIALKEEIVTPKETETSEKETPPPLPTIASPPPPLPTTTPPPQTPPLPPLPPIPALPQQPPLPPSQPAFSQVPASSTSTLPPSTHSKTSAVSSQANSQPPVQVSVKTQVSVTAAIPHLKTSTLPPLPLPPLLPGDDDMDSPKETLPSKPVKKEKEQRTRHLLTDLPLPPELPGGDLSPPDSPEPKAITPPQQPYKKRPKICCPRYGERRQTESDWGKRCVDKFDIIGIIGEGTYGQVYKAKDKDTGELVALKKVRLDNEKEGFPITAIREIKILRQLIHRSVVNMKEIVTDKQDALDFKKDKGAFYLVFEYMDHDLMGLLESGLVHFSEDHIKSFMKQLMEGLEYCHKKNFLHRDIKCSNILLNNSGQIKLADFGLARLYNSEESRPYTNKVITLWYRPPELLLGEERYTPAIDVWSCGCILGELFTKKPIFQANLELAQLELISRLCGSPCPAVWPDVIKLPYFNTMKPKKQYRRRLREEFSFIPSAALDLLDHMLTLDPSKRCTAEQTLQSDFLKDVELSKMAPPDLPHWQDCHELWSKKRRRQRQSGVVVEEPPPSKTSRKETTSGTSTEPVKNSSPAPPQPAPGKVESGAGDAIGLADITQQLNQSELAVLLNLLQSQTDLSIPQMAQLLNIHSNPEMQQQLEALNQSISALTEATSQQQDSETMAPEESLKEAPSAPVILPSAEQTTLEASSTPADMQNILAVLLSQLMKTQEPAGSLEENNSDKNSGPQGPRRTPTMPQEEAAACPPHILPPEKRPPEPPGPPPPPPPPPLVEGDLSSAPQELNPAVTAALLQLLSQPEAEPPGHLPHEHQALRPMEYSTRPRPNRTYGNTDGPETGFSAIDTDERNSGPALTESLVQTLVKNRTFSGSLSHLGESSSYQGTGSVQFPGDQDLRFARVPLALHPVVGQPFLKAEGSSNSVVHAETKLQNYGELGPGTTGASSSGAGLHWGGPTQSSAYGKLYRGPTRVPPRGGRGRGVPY
T1 sequence (O75909 whole entry partner): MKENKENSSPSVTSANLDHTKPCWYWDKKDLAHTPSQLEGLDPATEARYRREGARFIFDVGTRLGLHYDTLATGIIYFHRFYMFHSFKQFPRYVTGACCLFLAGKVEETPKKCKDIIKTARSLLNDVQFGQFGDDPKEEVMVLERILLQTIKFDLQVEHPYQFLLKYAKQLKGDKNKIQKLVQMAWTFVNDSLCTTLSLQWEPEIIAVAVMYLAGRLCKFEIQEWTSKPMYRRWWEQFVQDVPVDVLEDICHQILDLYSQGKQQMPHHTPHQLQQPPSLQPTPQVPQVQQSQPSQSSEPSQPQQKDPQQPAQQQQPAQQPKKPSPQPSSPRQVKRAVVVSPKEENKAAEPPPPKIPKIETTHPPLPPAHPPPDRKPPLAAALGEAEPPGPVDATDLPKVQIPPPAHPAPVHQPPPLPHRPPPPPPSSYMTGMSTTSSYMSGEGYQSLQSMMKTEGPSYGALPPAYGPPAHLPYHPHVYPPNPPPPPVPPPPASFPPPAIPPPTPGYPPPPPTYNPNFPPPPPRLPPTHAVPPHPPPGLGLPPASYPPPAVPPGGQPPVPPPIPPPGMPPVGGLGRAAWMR
Source text: FIG. 4: Chemoproteomics target deconvolution. IC50 values were generated by affinity capturing of kinases from K562 or A204 cell extract using beads derivatized with SNS-032, in the presence of different concentrations of free competing compound or vehicle (DMSO). pIC50 values are plotted against the pIC50 in the foci inhibition assay for each compound. A good correlation of kinase binding affinity with the inhibitory activity on foci is observed for CDKS, CDK7, CDK9, and CDK12. r: Pearson correlation coefficient; p: p-value (calculated probability).
To determine the specific CDKs responsible for the reduction of nuclear foci it was sought to expand the target coverage within the CDK family by the immobilization of two of the active compounds containing a suitable secondary amine; SNS-032 and AT7519 (FIG. 10). […] To confirm that the K562, A204 and DM1 cell lines express the same kinases a whole proteome analysis was conducted. All CDK/PCTK proteins identified by profiling were also identified in the cells used for the phenotypic foci assay as follows: […]
Affinity profiling was performed as described previously (Bantscheff, M. et al. (2007). Nat Biotechnol, 25: 1035-1044 and Bantscheff, M. et al. (2011). Nat Biotechnol, 29: 255-265). […] Proteins were alkylated, separated on 4-12% NuPAGE (Invitrogen), stained with colloidal Coomassie, and quantified by isobaric mass tagging and LC-MS/MS.

[6] = DM1 cells, 2 hours treatment, no recovery time

Row | activity against the CDK family, in particular CDK12 [5] | SMILES | activity in the nuclear foci assay (nuclear foci relative to DMSO treated cells) [1] | potency against CDK9 [2] | location of repeat expansion transcripts after treatment (nuclear and cytoplasmic extracts) [3] | decrease in the relative proportion of repeat expansion transcripts compared to wild type transcripts in the nucleus ([3]; 1 μM, 24 hours, Genescan) [%] | centralised nuclei in muscle fibres (laminin stain) [4] | reduction in foci on exposure for different lengths of time ([1]; DM1 fibroblast cells) | cells without nuclear foci ([1]; DM1 cells, 2 hours treatment, 48 hours recovery) [%] | cells without nuclear foci ([1]; DM1 cells, 2 hours treatment, 72 hours recovery) [%] | cells with more than 5 foci [1, 6] [%] | cells with no foci [1, 6] [%] | treatment time after which foci reduction was effective ([1]; DM1 fibroblast cells) [h]
1 | – | O=C(NC1CCNCC1)c1[nH]ncc1NC(=O)c1c(Cl)cccc1Cl [AT-7519] | high activity | highest potency | – | – | – | – | – | – | – | – | –
2 | most active inhibitor | CCc1cnn2c(NCc3ccc[n+]([O-])c3)cc(N3CCCC[C@H]3CCO)nc12 [dinaciclib] | significantly increased activity | – | still retained within the nuclear fraction | 59 | reduction in centralised nuclei | significant reduction in foci | – | – | – | – | –
3 | – | CC(C)(C)c1cnc(CSc2cnc(NC(=O)C3CCNCC3)s2)o1 [SNS-032] | high activity | highest potency | – | – | – | significant reduction in foci | 14 | 36 | 28 | 10 | 2
